Measurements: ChEMBL document CHEMBL1201862, “PubChem BioAssay data set” (2004)
The source made the active and inactive calls.

Tests used:
[1] = Luminescence Cell-Based Dose Confirmation HTS to Identify Activators of 5'UTR Stem-Loop Driven Alpha-Synuclein mRNA Translation in H4 Neuroglioblastoma Cells. [Related pubchem assays: 1829 (Project Summary), 1814 (Primary HTS)]; format: functional
[2] = target: T1, Polyadenylate-binding protein 1 (Homo sapiens, UniProt P11940); assay: MLLE binding blockers, Cy5 peptide tracer – biochemical, fluorescence polarization, Cy5-PAM2 peptide, secondary, miRNA deadenylation inhibitor project, dose response (AID 602260); format: functional; settings: read-out: IC50_Mean
T1 sequence (P11940 whole entry): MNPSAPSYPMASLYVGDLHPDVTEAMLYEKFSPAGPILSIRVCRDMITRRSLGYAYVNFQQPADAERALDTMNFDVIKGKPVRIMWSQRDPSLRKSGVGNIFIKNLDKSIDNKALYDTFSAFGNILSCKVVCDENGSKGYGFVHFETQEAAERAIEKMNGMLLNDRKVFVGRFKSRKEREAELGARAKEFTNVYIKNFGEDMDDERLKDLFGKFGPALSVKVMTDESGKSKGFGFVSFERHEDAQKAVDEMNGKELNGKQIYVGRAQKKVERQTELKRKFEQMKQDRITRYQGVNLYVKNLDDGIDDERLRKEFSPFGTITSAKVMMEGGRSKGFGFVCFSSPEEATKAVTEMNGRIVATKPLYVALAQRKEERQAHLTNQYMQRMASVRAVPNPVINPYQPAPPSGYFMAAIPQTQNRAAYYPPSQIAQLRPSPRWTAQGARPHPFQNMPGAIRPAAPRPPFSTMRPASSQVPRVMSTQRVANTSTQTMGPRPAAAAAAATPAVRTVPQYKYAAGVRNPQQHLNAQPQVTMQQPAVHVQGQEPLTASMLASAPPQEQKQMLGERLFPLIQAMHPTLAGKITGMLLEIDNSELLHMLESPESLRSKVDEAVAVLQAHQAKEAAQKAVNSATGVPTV

H4 = assay: Luminescence Cell-Based Dose Response HTS to Identify Activators of 5'UTR Stem-Loop Driven Prion Protein mRNA Translation in H4 Neuroglioblastoma Cells. [Related pubchem assays: 1829 (Project Summary), 1814 (Primary HTS)]; format: functional; settings: Homo sapiens
[3] = Luminescence Cell-Based Dose Response HTS to Identify Activators of Luciferase Translation or Activity in H4 […] Cells. [Related pubchem assays: 1829 (Project Summary), 1814 (Primary HTS)]; format: functional
[4] = target: T1, Polyadenylate-binding protein 1; assay: MLLE domain peptide-binding blockers, IC50 – biochemical, fluorescence polarization, FITC-PAM2 peptide, dose response (AID 602259); format: functional; settings: read-out: IC50_Mean
[5] = target: Eukaryotic translation initiation factor 4E (Mus musculus, UniProt P63073); assay: blockers of eIF4G binding by eIF4E – biochemical, TR-FRET, dose response (AID 855); format: functional;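 further: potency for disrupting eIF4E binding to eIF4GI seen as loss of FRET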
Eukaryotic translation initiation factor 4E, sequence (P63073 whole entry): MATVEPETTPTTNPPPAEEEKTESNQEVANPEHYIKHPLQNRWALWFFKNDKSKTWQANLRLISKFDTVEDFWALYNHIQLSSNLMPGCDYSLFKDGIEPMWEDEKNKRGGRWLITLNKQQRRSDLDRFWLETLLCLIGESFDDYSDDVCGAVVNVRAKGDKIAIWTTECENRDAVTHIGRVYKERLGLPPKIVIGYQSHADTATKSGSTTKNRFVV

Paired box protein Pax-8 = Paired box protein Pax-8 (Homo sapiens, UniProt Q06710); assay: PAX8 transcriptional activity inhibition in RMG-I – RMG-I cells, luciferase, cherry-pick, dose response (AID 687027); format: functional, cell-based;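 further: luciferase reporter driven by Pax8 target thyroperoxidase promoter measured by SteadyGlo luminescence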
Paired box protein Pax-8, sequence (Q06710 whole entry): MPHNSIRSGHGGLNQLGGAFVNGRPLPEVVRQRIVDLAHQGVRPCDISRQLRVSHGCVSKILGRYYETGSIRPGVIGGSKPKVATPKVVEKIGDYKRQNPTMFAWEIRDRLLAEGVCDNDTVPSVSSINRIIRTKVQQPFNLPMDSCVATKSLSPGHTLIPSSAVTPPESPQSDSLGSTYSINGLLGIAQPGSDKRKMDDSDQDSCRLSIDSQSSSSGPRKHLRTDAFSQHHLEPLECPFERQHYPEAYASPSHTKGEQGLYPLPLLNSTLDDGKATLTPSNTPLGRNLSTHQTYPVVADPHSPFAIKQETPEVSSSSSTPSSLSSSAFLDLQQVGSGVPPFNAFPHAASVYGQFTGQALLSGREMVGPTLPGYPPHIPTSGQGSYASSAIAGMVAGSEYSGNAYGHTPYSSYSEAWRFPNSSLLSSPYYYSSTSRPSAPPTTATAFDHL

[6] = OVCAR8 cell viability loss – plate reader, dry powder samples, PAX8 project, dose response (AID 743197); format: functional, cell-based; settings: OVCAR-8
SN12K1 = assay: cells; format: functional; settings: Homo sapiens
[7] = target: FAD-linked sulfhydryl oxidase ALR (Homo sapiens, UniProt P55789); assay: ALR-catalysed DTT oxidation blockers – biochemical, H2O2 detection, luminescence, cherry-pick, dose response (AID 493248)
FAD-linked sulfhydryl oxidase ALR, sequence (P55789 whole entry): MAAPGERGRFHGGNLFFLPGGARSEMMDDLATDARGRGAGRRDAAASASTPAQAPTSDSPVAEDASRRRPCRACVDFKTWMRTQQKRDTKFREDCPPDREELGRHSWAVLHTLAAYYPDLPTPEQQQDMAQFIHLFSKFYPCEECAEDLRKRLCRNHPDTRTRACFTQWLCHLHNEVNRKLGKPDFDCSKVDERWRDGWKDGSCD

HEK293 [8] = assay: cells; format: functional, cell-based; settings: Homo sapiens
HEK293 [9] = assay: cells; format: functional, cell-based; settings: Homo sapiens; remark: listed apart in the source
HEK293 [10] = assay: NOD2 signaling inhibitors in MDP-stimulated cells, cell-based, uHTS, luminescence (AID 2001); format: functional; settings: Homo sapiens
HEK293 [11] = assay: inhibition of NOD1-driven NF-kB reporter – cell-based, luminescence, uHTS, primary screen (AID 1578); format: functional; settings: Homo sapiens
Cytochrome P450 2D6 = Cytochrome P450 2D6 (Homo sapiens, UniProt P10635);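 further: CYP2D6 member of a cytochrome P450 panel assay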
P388/ADR = assay: cells; format: functional
[12] = target: T2, Corticotropin-releasing factor receptor 2/Corticotropin-releasing factor-binding protein (Homo sapiens, UniProt P24387+Q13324); assay: activators of CRF receptor 2 with binding protein – uHTS hits, confirmation (AID 602473); format: functional; settings: read-out: EC50_Mean
T2 sequence (Q13324 whole entry): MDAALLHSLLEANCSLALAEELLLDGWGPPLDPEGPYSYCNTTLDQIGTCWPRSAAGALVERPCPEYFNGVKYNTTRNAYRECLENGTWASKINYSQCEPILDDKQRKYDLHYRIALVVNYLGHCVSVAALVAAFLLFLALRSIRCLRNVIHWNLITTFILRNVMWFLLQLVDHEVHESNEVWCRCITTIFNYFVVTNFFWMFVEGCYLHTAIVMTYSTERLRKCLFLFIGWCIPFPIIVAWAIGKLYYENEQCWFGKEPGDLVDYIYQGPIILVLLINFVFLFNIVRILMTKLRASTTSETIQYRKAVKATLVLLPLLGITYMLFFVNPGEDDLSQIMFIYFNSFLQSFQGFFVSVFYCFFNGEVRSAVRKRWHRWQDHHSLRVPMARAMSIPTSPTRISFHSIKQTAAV
T2 sequence (P24387 whole entry): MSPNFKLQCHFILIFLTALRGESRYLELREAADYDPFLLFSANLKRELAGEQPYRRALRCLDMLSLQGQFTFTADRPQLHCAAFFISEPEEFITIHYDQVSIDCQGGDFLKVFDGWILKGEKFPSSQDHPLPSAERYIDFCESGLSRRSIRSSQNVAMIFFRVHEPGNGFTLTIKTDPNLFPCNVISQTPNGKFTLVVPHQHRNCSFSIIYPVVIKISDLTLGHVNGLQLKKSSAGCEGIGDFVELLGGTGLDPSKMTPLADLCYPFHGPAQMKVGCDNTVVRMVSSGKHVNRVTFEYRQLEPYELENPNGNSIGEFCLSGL

HEK293 [13] = assay: EBV LMP1 TES2 canonical NF-kB signalling blockers – cell-based, HEK293, luciferase, cherry-pick, dose response (AID 588343); format: functional; settings: Homo sapiens
[14] = target: T2, Corticotropin-releasing factor receptor 2/Corticotropin-releasing factor-binding protein; assay: Dose Response confirmation of uHTS hits for small molecule antagonists of the CRF-binding protein and CRF-R2 receptor complex.; format: functional; settings: read-out: IC50_Mean
[15] = blockers of HIV-1 envelope-mediated cell-cell fusion – cherry-pick, dose response (AID 652057); format: functional, cell-based
[16] = HIV-1 AD8 envelope cell-cell fusion blockers – cherry-pick, dose response (AID 652062); format: functional, cell-based;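 further: luciferase signal from cell-cell fusion driven by HIV-1 clade B AD8 Env; potency is for inhibitors of fusion seen as a drop in luminescence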
[17] = target: Induced myeloid leukemia cell differentiation protein Mcl-1 (Homo sapiens, UniProt Q07820); format: functional
Induced myeloid leukemia cell differentiation protein Mcl-1, sequence (Q07820 whole entry): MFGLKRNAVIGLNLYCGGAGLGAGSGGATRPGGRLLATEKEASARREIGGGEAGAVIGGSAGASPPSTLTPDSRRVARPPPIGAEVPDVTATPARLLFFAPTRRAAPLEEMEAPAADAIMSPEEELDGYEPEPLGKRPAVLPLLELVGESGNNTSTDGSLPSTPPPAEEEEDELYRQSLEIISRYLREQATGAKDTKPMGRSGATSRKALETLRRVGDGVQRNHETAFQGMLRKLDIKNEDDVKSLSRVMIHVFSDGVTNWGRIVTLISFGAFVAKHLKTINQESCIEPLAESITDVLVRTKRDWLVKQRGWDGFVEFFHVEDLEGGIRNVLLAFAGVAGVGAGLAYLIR

Genome polyprotein = Genome polyprotein (dengue virus type 2, UniProt P29990); assay: flavivirus cap methylation enzyme inhibition – biochemical, confirmation dose response, primary screen (AID 588689); format: functional
[18] = target: T3, Rac GTPase-activating protein 1 (Homo sapiens, UniProt Q9H0H5); assay: blockers of MgcRacGAP-driven Rac1 GTP hydrolysis – biochemical, ADP Hunter fluorescence, primary and confirmatory, confirmation (AID 624330); format: functional
T3 sequence (Q9H0H5 whole entry): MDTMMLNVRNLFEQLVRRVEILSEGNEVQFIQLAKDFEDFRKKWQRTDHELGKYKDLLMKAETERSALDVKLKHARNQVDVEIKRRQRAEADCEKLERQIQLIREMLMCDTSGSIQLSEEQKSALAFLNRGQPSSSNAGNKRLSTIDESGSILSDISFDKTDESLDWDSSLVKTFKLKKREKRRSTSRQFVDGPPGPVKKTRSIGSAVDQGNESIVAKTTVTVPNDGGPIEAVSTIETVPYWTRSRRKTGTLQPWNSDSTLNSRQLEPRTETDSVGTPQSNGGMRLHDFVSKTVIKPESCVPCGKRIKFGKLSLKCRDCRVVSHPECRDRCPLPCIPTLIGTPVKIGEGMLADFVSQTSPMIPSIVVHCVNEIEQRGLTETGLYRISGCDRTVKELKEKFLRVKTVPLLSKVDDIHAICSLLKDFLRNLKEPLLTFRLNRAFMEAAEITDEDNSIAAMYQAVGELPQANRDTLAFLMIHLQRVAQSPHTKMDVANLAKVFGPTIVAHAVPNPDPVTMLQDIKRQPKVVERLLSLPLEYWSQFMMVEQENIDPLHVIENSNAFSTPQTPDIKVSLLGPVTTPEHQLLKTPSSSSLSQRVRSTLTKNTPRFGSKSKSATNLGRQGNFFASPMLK

[19] = target: Voltage-dependent T-type calcium channel subunit alpha-1H (Homo sapiens, UniProt O95180); format: functional;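 further: channel activity triggered by adding a high calcium stimulation buffer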
Voltage-dependent T-type calcium channel subunit alpha-1H, sequence (O95180 whole entry): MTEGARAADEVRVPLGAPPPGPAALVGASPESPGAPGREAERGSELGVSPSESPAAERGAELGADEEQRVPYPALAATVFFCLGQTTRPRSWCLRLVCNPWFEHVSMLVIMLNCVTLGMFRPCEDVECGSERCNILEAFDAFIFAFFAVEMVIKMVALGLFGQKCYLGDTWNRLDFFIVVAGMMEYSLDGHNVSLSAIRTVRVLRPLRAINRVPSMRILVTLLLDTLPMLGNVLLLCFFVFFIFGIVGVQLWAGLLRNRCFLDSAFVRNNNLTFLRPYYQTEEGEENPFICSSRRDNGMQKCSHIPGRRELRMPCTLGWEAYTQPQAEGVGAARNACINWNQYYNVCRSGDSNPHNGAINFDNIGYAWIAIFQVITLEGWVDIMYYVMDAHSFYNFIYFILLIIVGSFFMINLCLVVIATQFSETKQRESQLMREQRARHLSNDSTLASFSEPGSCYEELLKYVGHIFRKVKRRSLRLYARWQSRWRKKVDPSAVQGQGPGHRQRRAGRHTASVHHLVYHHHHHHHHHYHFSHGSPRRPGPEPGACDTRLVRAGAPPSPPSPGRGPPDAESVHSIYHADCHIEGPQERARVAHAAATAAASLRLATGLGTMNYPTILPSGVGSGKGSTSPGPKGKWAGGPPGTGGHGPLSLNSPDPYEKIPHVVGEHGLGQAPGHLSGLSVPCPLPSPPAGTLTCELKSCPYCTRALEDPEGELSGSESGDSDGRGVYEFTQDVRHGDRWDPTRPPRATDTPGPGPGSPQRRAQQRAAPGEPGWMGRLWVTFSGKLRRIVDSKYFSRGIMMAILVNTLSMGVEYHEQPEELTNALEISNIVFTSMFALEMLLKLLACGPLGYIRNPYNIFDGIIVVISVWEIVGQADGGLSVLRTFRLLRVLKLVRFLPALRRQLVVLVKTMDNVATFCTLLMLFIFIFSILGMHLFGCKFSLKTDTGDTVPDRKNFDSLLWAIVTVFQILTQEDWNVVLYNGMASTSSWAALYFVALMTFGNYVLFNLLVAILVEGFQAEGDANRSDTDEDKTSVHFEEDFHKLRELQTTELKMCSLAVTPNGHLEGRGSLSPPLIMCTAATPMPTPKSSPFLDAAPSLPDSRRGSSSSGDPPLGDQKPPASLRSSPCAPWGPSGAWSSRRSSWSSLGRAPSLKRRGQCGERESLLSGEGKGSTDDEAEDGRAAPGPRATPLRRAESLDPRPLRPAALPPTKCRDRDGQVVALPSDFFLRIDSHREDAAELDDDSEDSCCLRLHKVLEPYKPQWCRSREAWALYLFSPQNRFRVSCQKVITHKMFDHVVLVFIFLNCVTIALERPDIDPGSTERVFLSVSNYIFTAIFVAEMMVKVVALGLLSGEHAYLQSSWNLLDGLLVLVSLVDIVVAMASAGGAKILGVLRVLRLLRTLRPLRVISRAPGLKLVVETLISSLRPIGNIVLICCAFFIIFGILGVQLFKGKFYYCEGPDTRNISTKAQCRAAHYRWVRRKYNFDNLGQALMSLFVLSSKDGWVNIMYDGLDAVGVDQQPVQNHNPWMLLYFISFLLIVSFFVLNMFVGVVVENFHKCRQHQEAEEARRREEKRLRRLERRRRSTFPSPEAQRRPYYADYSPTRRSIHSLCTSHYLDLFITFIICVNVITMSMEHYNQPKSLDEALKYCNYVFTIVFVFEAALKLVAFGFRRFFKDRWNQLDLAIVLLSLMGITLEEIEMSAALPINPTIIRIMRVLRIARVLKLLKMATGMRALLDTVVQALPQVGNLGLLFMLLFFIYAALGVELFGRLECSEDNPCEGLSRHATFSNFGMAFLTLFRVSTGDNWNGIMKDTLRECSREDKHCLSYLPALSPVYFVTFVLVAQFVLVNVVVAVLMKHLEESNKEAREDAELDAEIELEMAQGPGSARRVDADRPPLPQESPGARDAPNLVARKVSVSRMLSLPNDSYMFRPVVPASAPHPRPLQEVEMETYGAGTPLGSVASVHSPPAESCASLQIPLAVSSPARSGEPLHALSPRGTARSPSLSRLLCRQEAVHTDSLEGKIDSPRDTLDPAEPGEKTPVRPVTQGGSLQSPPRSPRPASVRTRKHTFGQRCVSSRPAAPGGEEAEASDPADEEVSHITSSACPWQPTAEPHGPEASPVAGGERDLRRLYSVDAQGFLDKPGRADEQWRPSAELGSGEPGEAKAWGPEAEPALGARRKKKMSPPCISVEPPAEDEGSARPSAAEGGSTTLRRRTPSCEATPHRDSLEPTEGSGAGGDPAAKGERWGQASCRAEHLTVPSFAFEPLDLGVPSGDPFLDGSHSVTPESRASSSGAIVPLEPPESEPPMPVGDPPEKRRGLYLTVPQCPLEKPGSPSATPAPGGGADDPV

Streptococcus = assay: GAS UMAA2166 growth inhibition – luminescence, BacTiterGlo, counter-screen for streptokinase expression inhibitor project, dose response (AID 1915); format: functional, organism-based;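 further: potency for reduction of bacterial viability or growth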
[20] = tested on: Streptococcus sp. 'group A'; assay: Streptococcus pyogenes SK(-)GAS viability under kanamycin – luminescence, BacTiterGlo, confirmation, counter-screen for streptokinase expression inhibitor project, dose response (AID 1900); format: functional, organism-based
Nonstructural protein 1 = Nonstructural protein 1 (Influenza A virus, UniProt Q194T2); format: functional, Influenza A virus (A/California/07/2009(H1N1))
Nonstructural protein 1, sequence (Q194T2 whole entry): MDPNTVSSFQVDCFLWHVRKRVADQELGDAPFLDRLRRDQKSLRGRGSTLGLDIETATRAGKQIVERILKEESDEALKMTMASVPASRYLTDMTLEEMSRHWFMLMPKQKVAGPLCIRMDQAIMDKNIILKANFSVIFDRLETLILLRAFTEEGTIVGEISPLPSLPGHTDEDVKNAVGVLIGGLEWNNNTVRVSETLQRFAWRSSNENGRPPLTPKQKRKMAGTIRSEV

[21] = target: Glucose-6-phosphate 1-dehydrogenase (Homo sapiens, UniProt P11413); assay: inhibition of Homo sapiens G6PD, dose series – biochemical, fluorescence, selectivity assay for P. falciparum G6PD inhibitor project, dose response (AID 504792); format: functional
Glucose-6-phosphate 1-dehydrogenase, sequence (P11413 whole entry): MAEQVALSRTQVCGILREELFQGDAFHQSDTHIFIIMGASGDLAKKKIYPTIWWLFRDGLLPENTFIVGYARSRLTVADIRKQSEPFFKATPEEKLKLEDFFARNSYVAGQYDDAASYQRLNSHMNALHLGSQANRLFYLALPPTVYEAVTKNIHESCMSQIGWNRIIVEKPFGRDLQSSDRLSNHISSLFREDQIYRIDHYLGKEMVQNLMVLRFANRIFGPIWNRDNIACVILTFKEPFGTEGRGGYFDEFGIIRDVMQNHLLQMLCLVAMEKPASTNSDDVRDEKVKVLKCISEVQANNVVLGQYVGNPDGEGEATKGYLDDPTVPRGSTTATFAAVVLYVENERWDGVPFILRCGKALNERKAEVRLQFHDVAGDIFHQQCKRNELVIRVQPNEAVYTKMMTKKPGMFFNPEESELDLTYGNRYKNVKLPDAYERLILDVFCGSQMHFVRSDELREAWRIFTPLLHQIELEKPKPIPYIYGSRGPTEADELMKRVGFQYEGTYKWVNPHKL

Nc1cc(Nc2ccc(Br)cc2)nc(N)n1
EC50 [1]: > 120 µM (not active) | IC50 [2]: > 66 µM (inactive) | EC50 (H4): 11.3 µM (active) | EC50 [3]: 17.4 µM (active) | IC50 [4]: 55.4 µM (inactive)

CCc1ccc(OS(=O)(=O)c2cn(C)c(=O)n(C)c2=O)cc1
IC50 [2]: > 66 µM (inactive) | IC50 [4]: > 66 µM (inactive)

COc1ccc(NC(=S)NC2CCS(=O)(=O)C2)cc1 (centres undefined)
IC50 [5]: > 64 µM (inactive)

O=C(O)CCCN1C(=O)C(O)=C(C(=O)c2ccc(Cl)cc2)C1c1ccccc1 (centres undefined)
IC50 [2]: > 66 µM (inactive) | IC50 [4]: > 66 µM (inactive)

Cc1ccc(S(=O)(=O)Nc2ccc3c(c2)C(=O)N([C@@H](C)CO)C[C@H](C)[C@@H](CN(C)Cc2ccc(Cl)c(Cl)c2)OCCCC[C@@H](C)O3)cc1
AC50 (Paired box protein Pax-8): 5.22 µM (active) | AC50 [6]: > 70 µM (inactive)

Cc1c(NC(=O)c2cc(CC(C)C)on2)c(=O)n(-c2ccccc2)n1C
IC50 [5]: > 64 µM (inactive)

Cc1ccc(N2C(S)=NC3c4cc(Cl)ccc4OC2(C)C3C(=O)N(C)C)cc1 (centres undefined)
IC50 [2]: > 66 µM (inactive) | IC50 [4]: > 66 µM (inactive)

CCOC(=O)c1cc(Cl)ccc1OC(N)=O
GI50 (SN12K1): > 100 µM (inactive)

COc1ccc(N2CCN(C(=O)CCNC(=O)Cn3ccc4ccccc4c3=O)CC2)cc1
IC50 [5]: 50 µM (inactive) | AC50 [7]: 8.16 µM (active)

COC(=O)c1scc(C#N)c1N/N=C(\C#N)S(=O)(=O)c1ccc(Cl)cc1
IC50 (HEK293 [8]): > 20 µM (inactive) | IC50 (HEK293 [9]): > 20 µM (inactive) | IC50 (HEK293 [10]): 18.8 µM (inactive) | EC50 (HEK293 [11]): 6.08 µM (active)

CCN(CC)CC[n+]1ccc2c(C)c3[nH]c4ccccc4c3c(C)c2c1
GI50 (SN12K1): 0.124 µM (active) | AC50 (Cytochrome P450 2D6): 3.16 µM (inconclusive) | GI50 (P388/ADR): 19.1 µM (inactive)

Oc1nncc(N/N=C/C=C/c2ccccc2)n1
EC50 [12]: > 53 µM (inactive) | AC50 (HEK293 [13]): 7.38 µM (active) | IC50 [14]: > 47.1 µM (inactive)

COc1cc(C(=S)N2CCOCC2)cc(OC)c1OC(=O)c1ccc(F)cc1
AC50 (HEK293 [13]): > 350 µM (inactive)

Cc1ccc(S(=O)(=O)N(C)C[C@@H]2Oc3ncc(-c4cc5ccccc5o4)cc3C(=O)N([C@H](C)CO)C[C@@H]2C)cc1
AC50 [15]: 17.3 µM (active) | AC50 [16]: 36.2 µM (active)

NC(=O)c1nn(CC(=O)Nc2ccc3c(c2)OCO3)cc1[N+](=O)[O-]
IC50 [17]: 15.3 µM (not active)

COc1cc(/C=C2\C(=O)N(c3cccc(C(=O)O)c3)N=C2C)ccc1OCc1ccccc1
IC50 (Genome polyprotein): 7.99 µM (active) | IC50 [18]: 43.9 µM (active)

CN(CCC(=O)c1ccccc1)CCC(=O)c1ccccc1
IC50 [2]: > 66 µM (inactive) | IC50 [4]: > 66 µM (inactive)

COc1cccc2c(S)c(CCC(C)=O)c(C)nc12
IC50 [17]: < 0.4 µM (active)

Cc1ccc(CNC(=O)Cn2cccc2C(=O)c2ccccc2)cc1
EC50 [19]: 3.77 µM (active)

COc1ccc(OCC(=O)Nc2nnc(-c3ccco3)s2)cc1
IC50 [17]: 2.82 µM (active)

CS(=O)(=O)N(CC(=O)N1CCN(c2ccccc2)CC1)c1ccc(Cl)c(C(F)(F)F)c1
EC50 [19]: 5.13 µM (active)

CN(C)c1ccc(CC(=O)c2nc3ccccc3s2)cc1
IC50 [17]: 2.73 µM (active)

C=C1CC2CC[C@@]34C[C@H]5O[C@@H]6C(O[C@H]7CC[C@H](CC(=O)OC8[C@H](C)C9OC%10C[C@]%11(C[C@@H]%12O[C@]%13(C[C@H](C)[C@@H]%14O[C@H]([C@H](O)C[C@H](O)CO)C[C@@H]%14O%13)C[C@H](C)[C@@H]%12O%11)OC%10CC9O[C@H]8C[C@H]8O[C@H](CC[C@@H]1O2)C[C@@H](C)C8=C)O[C@H]7[C@@H]6O3)[C@@H]5O4 (some centres undefined)
GI50 (P388/ADR; Mus musculus, P388/ADR): 0.000255 µM (active)

CC(C)C(=O)Nc1ccc(C(=O)N/N=C/c2cc(Br)cc(Br)c2O)cc1
AC50 (HEK293 [13]): 16.7 µM (active) | EC50 (Streptococcus): 2.04 µM (active) | EC50 [20]: 1.65 µM (active)

Cc1nn(Cc2ccccc2)c(C)c1NC(=O)c1cc(-c2cccs2)on1
EC50 [19]: 2.71 µM (active)

CC(=O)NC(c1ccco1)c1ccc2cccnc2c1O (centres undefined)
IC50 (Nonstructural protein 1): 12.5 µM (active) | IC50 (HEK293 [8]): > 20 µM (inactive) | IC50 (HEK293 [9]): > 20 µM (inactive) | IC50 (HEK293 [10]): > 20 µM (inactive) | EC50 (HEK293 [11]): > 20 µM (inactive)

Cc1ccc(-n2c(Cc3cccn3C)nnc2SCC(=O)NCc2ccc3c(c2)OCO3)cc1
EC50 [19]: 1.31 µM (active)

[O-][N+](=Cc1ccccc1)c1ccc(Cl)cc1
IC50 [21]: 57 µM (inactive)

CCSc1nc2cc(S(=O)(=O)N3CCOCC3)ccc2o1
IC50 [21]: > 80 µM (inactive)
